Measured values taken from patent US20070043034A1, “Chlorine Ion Uptake Modulators and Uses Thereof” (priority 2005, published 2007).

How the values were obtained:
[1] = target: T1, NKCCl (Rattus norvegicus, UniProt E9PTX9); experiment: Whole-cell voltage clamp, reversal potential of currents elicited by local GABA application (Egaba) in CA1 pyramidal cells; type: cell-based; settings: in the presence of bumetanide, n=6 cells from 8, p=0.005, control −37±2.72 mV
T1 construct: gramicidin perforated patch clamped CA1 pyramidal neuron in an acute hippocampal slice from a P5 rat; from tissue; host or cells: acute hippocampal slices of P3-P6 male Sprague-Dawley rats; CA1 pyramidal neurons
T1 sequence (E9PTX9 1-1203): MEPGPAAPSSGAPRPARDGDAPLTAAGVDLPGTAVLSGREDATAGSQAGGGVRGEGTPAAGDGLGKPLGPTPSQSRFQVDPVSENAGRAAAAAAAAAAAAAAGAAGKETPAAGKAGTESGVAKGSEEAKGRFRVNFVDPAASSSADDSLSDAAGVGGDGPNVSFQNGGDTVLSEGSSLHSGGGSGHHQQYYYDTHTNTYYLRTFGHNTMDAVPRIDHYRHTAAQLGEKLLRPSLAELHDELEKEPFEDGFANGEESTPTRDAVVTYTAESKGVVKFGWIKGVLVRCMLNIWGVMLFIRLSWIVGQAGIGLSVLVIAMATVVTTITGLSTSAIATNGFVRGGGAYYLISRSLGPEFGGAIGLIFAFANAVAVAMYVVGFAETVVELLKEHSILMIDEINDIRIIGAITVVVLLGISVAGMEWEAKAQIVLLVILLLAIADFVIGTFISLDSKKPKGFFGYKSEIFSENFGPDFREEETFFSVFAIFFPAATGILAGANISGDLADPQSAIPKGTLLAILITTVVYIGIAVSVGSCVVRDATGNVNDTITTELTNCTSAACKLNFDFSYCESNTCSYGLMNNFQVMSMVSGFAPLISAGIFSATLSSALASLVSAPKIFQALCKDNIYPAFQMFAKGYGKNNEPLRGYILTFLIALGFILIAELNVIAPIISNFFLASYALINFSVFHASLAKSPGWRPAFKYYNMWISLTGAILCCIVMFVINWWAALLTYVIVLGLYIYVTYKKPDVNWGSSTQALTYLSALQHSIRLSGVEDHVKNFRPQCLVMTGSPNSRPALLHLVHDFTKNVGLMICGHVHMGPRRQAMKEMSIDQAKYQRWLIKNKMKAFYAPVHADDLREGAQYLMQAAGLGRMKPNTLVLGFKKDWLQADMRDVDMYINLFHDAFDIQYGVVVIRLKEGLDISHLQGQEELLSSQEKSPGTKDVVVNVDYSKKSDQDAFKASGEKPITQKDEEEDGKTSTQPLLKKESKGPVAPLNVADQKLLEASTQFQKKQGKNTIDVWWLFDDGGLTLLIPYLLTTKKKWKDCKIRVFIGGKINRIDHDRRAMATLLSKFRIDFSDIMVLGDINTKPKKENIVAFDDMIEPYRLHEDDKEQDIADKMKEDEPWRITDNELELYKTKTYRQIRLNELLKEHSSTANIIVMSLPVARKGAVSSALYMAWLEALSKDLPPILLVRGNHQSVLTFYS
From the text: In one example, direct effect of bumetanide on Egaba (excitatory GABAA) can be tested. Here, whole-cell voltage clamp recordings to measure the reversal potential of currents elicited by local application of GABA (10 pM, 10 ms pulse duration) in CA1 pyramidal cells were used.
In one example, electrophysiological recordings are gathered from individual slices and subsequently transferred to a conventional submerged-type chamber and continuously superfused with, for example, oxygenated aCSF. Whole-cell recordings were generated. Patch electrodes were used, made by known methods. For whole-cell recording in voltage-clamp mode pipettes were filled with a buffered solution.

[2] = system: low-Mg^2+ induced recurrent seizures in the intact hippocampus; experiment: Low-Mg2+ ACSF induced recurrent seizures in the intact hippocampus in vitro; type: cell-based, rat; settings: phenobarbital 100 μM, bumetanide 10 μM or both, 120 min application; intact hippocampus of P4-6 rats
From the text: High expression level of the Na^+ K^+-2Cl^− (NKCCl) co-transporter in immature neurons causes the accumulation of chloride ions and a depolarized Cl^− equilibrium potential (ECl). This is linked to a higher seizure propensity and poor EEG response in neonates to the barbiturates and benzodiazepines, conventional anticonvulsant drugs that target Cl^−-permeable GABAA-receptor (GABAA-R) operated channels. […] Recurrent ictal-like seizures were induced by low-Mg^+ ACSF in intact hippocampal preparations in vitro. […] Bumetanide decreased both seizure frequency and seizure power.
FIGS. 11A-11C are graphs of low-Mg^2+πinduced recurrent seizures in the intact hippocampus in vitro. […] First and last seizures from 5 hour recording are shown on an expanded time scale. Right, corresponding power spectra in the 0.1-1000 Hz frequency band. […] Summary data are taken from ten hippocampi. […] Power of the first seizure in each recording was considered as 100%. Data are taken from 18 recordings in 10 preparations from P4-6 rats.
FIGS. 12A-12C are graphs showing low efficiency of phenobarbital in neonatal seizures. FIG. 12A is a graph showing extracellular field potential recording in the CA3 pyramidal cell layer in the intact hippocampus of a P5 rat. Continuous application of low-Mg^2+ ACSF induced recurrent tonic-clonic seizures. […] The right portion corresponds to power spectra in the 0.1-1000 Hz frequency range. […] Data are from ten experiments that were combined. FIG. 12C is a graph showing power of recurrent seizures before, during and after phenobarbital application. Power of the first seizure in each recording was considered as 100%. Seizures were not depressed by phenobarbital indicating its low efficiency.
FIGS. 13A-13C are graphs showing that alteration of Cl^−-transport by bumetanide enhanced efficacy of phenobarbital in neonatal seizures. FIG. 13A is a graph of extracellular field potential recording in the CA3 pyramidal cell layer in the intact hippocampus of a P5 rat. Application of low-Mg^2+ ACSF induced recurrent seizures. […] These are shown on an expanded time scale. The right portion of FIG. 13A is a power spectra of extracellular field potential activity before and during application of drugs. FIG. 13B is a graph showing inter-seizure intervals before, during and after application of drugs. In 75% of experiments seizures were abolished (ISI>120 min) by simultaneous application of phenobarbital and bumetanide. FIG. 13C is a graph showing power of recurrent seizures before, during and after simultaneous application of phenobarbital and bumetanide. Power of the first seizure in each recording was considered as 100%. Seizures were depressed by combination of drugs.
FIGS. 14A and 14B are graphs showing alteration of Cl^−-transport for early-life seizure therapy. […]

Egaba (reversal potential of currents elicited by local application of GABA) [1]: −40.35+2.73 mV
SMILES: CCCCNc1cc(C(=O)O)cc(S(N)(=O)=O)c1Oc1ccccc1 [bumetanide, 3-(aminosulfonyl)-5-(butylamino)-4-phenoxybenzoic acid]
seizure frequency [2]: decreased
seizure power [2]: decreased
